{"source": "patent US20040106647A1", "about": "“Modulators of Cdk9 as a therapeutic target in cardiac hypertrophy” (priority 2002, published 2004)", "molecules": {"B1": {"name": "RNase A: bovine pancreas ribonuclease A (Sigma) (protein, UniProt P61823 27-150, looked up)", "Ribonuclease pancreatic": "KETAAAKFERQHMDSSTSAASSSNYCNQMMKSRNLTKDRCKPVNTFVHESLADVQAVCSQKNVACKNGQTNCYQSYSTMSITDCRETGSSKYPNCAYKTTQANKHIIVACEGNPYVPVHFDASV"}, "B2": {"name": "heparin-binding epidermal growth factor (protein, UniProt Q99075 63-148, looked up)", "Heparin-binding EGF-like …": "DLQEADLDLLRVTLSSKPQALATPNKEEHGKRKKKGKGLGKKRDPCLRKYKDFCIHGECKYVKELRAPSCICHPGYHGERCHGLSL", "notes": "member of the EGF family, secreted mediator of growth signals in the heart"}}, "key": {"[1]": {"tested_on": "mitogen-activated protein kinases", "assay": "Phosphorylation of mitogen-activated protein kinases in cultured cardiac myocytes", "format": "cell-based, rat", "settings": "50 μM DRB"}, "[2]": {"biological_target": "T1, Cdk9 (Rattus norvegicus, UniProt Q641Z4)", "T1 construct": "endogenous in cells; host or cells: neonatal rat ventricular myocytes; immunoprecipitated with polyclonal rabbit anti-Cdk9 and protein A-Sepharose", "T1 sequence (Q641Z4 whole entry)": "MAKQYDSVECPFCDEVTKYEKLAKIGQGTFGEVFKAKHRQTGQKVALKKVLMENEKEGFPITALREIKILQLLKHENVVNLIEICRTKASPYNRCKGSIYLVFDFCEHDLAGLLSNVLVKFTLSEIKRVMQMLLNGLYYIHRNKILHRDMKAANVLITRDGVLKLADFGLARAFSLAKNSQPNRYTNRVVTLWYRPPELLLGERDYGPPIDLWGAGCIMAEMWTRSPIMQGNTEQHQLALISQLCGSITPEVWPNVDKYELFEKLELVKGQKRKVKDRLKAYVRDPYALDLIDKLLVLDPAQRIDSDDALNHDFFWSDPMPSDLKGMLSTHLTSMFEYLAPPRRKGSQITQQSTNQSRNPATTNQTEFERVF", "assay": "Immune complex CTD kinase assay (GST-CTD substrate), Cdk9", "format": "biochemical", "description": "(§1) Immune complex kinase assays were performed as described (Yang et al., 1996), using polyclonal rabbit antibody against Cdk7 or Cdk9 together with protein A-Sepharose. Kinase assays were performed by adding 25 μl of 50 mM Tris-HCl [pH 7.4], 10 mM MgCl2, 5 mM dithiothreitol, 2.5 mM MnCl2, 5 μM ATP, 5 μCi of [γ-^32P]ATP, and 200 ng of GST-CTD to the beads and incubating at room temperature for 60 min. The complexes were resolved by SDS-polyacrylamide gel electrophoresis, and CTD phosphorylation was visualized by autoradiography and quantified using a phosphorimager and ImageQuant version 5.2 (Molecular Dynamics). Where indicated, immunoprecipiates were incubated with 50 μg/ml of bovine pancreas ribonuclease A (RNase A; Sigma) for 60 min prior to the CTD kinase assay.\n(§2) Next, cells were preincubated with DRB for 2 hr at the concentrations shown, and were assayed for pol II phosphorylation after stimulation with ET-1 for 15 min or the indicated intervals. Immune complexes were treated in vitro with 50 μM DRB and assayed by phosphorylation of the recombinant GST-CTD substrate. […] Based on this effect, 50 μM DRB was added in vitro to cardiac Cdk9 and Cdk7 immune complexes, and assayed for its effect on phosphorylation of the recombinant CTD substrate."}, "[3]": {"tested_on": "cardiac myocytes", "assay": "[3H]uridine incorporation (RNA synthesis) in cardiac myocytes", "format": "cell-based, rat", "description": "(§3) Neonatal ventricular myocytes from 1 to 2 day-old Sprague-Dawley rats were subjected to Percoll gradient centriftigation and differential plating, to enrich for cardiac myocytes and deplete nonmyocytes (Oh et al., 2001). Cells were infected for 6 hr, after overnight culture, at a multiplicity of infection (MOI) of 20, then were cultured in serum-free medium for an additional 24 hr before the addition of agonists. The efficiency of viral gene transfer is >95% under the conditions used. DRB (Sigmna) was dissolved in dimethylsulfoxide (DMSO) and then in culture medium to the desired final concentration in 0.1% (vol/vol) DMSO.\nCells were incubated for 24 hr with 1 μCi/ml of either precursor, in the absence or presence of ET-1 and [^3H]uridine and [^3H]phenylalanine incorporation was measured. Total RNA was extracted using TRIzol (Invitrogen), for simultaneous extraction of DNA from the samples.\n(§4) Hypertrophy was monitored as [^3H]uridine incorporation (FIG. 2F, FIG. 2H; n=4 per group) and [^3H]phenylalanine incorporation (FIG. 2I; n=6 per group), corrected for DNA content. Myocyte size was visualized with eGFP (FIG. 2G, FIG. 2J). Bar, 100 μm."}, "[4]": {"biological_target": "Cdk9 (Homo sapiens, UniProt P50750)", "sequence (P50750 whole entry, species assumed)": "as the sequence (Q641Z4 whole entry) above, with T17S, K37R, Q40K, K258N, F262Y counted along it", "sequence (O60563 whole entry partner, species assumed)": "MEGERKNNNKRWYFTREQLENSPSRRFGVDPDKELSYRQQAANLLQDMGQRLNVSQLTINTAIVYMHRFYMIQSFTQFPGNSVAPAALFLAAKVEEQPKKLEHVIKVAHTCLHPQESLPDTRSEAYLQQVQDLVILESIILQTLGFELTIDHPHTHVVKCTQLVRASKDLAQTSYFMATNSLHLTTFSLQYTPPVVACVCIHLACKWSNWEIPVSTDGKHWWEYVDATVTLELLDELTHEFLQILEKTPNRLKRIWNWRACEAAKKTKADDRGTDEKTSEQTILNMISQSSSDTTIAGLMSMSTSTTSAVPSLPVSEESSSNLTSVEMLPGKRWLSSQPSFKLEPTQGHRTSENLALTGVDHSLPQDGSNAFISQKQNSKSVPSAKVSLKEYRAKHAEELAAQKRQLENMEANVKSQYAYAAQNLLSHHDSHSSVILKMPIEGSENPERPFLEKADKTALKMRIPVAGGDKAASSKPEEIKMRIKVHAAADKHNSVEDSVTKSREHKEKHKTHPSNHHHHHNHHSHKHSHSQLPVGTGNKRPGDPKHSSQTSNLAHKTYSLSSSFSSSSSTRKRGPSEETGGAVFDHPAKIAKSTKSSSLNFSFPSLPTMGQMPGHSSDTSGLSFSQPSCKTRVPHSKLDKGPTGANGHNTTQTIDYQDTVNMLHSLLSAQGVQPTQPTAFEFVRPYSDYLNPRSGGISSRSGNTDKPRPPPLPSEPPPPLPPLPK", "settings": "Zhu et al., 1997; cited from earlier work"}, "[5]": {"tested_on": "pol II CTD", "assay": "Western blotting of pol II CTD phosphorylation in cultured ventricular myocytes", "format": "cell-based, rat", "settings": "for hyperphosphorylation of pol II: serum-starved 24 hr, stimulated 15 min, ET-1 0.1 μM, PE 0.1 μM, HB-EGF 1 nM", "description": "Western blotting was performed using the identical cell lysates. The following antibodies were used: rabbit antibodies against pol II, Cdk7, Cyclin H, MAT1, CyclinT1, Hsp70, Hsp90 and Cdc37; goat antibody against Cyclin T2a/b; and mouse monoclonal antibodies to the Ser2 and Ser5 CTD phoshopeptides (Patturajan et al., 1998; Herrmann et al., 2001). Protein expression was visualized using horseradish peroxidase-conjugated second antibodies and enhanced chemiluminescence reagents (Amersham Pharmacia Biotech).\nas §3\nBriefly, ventricular myocytes were analyzed by Western blotting as in Example 1. Ventricular myocytes were serum-starved for 24 hr, stimulated for 15 min with ET-1 (0.1 μM), PE (0.1 μM), HB-EGF (1 nM), or the vehicle, and analyzed by Western blotting with antibody to the pol II CTD. Ventricular myocytes were stimulated with ET-1 for the indicated times.\nas §2"}, "[6]": {"tested_on": "cardiac myocytes", "assay": "Myocyte size visualized with eGFP", "format": "cell-based, rat", "settings": "DRB pretreatment, ET-1 stimulation", "description": "as §3, §4"}, "[7]": {"tested_on": "cardiac myocytes", "assay": "Myocyte apoptosis by flow cytometry (hypodiploid DNA)", "format": "cell-based", "text": "Myocyte apoptosis was monitored by flow cytometry as hypodiploid DNA, using FITC-conjugated MF20 antibody to sarcomeric myosin heavy chains and propidium iodide in the presence of RNase A (Oh et al., 2001)."}, "[8]": {"biological_target": "T2, Cdk7 (Rattus norvegicus, UniProt P51952)", "T2 construct": "endogenous in cells; host or cells: neonatal rat ventricular myocytes; immunoprecipitated with polyclonal rabbit anti-Cdk7 and protein A-Sepharose", "T2 sequence (P51952 1-329)": "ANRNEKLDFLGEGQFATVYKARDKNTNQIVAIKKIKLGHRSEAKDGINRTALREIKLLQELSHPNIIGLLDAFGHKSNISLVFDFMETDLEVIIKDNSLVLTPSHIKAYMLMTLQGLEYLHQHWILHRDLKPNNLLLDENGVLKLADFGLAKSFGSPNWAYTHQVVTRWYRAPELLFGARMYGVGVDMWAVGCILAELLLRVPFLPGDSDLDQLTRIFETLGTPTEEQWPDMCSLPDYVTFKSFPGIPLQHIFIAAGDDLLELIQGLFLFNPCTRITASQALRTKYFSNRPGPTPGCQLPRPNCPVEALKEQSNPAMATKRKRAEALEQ", "T2 sequence (Q9R1A0 1-323 partner)": "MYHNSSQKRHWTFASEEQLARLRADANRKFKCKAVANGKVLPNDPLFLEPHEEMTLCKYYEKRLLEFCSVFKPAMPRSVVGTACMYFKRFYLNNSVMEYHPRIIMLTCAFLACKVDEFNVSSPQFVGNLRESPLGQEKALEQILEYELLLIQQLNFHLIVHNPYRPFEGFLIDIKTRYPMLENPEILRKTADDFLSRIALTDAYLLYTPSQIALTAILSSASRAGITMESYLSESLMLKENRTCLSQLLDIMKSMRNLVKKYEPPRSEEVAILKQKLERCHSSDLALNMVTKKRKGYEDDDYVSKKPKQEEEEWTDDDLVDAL", "assay": "Immune complex CTD kinase assay (GST-CTD substrate), Cdk7", "format": "biochemical", "settings": "50 μM DRB added in vitro to cardiac immune complexes", "description": "as §1, §2"}, "[9]": {"tested_on": "cyclin T/Cdk9 complex", "assay": "Co-precipitation of 7SK snRNA with cyclin T/Cdk9 (RT-PCR of immune complexes)", "format": "cell-based, rat", "settings": "cardiac myocytes treated with ET-1", "description": "Total RNA was isolated from Cdk9, cyclin T1, cyclin T2, and Cdk7 immune complexes using TRIzol and subjected to DNase I (Invitrogen) for 15 min at room temperature, followed by reverse transcription using antisense oligonucleotides for 7SK snRNA. The PCR primers were: sense, (SEQ. ID. NO. 3) […]; antisense, (SEQ. ID. NO. 4) […]. PCR products were subjected to electrophoresis on 2% agarose gel and stained with ethidium bromide.\nET-1 caused the rapid loss of Cdk9-associated 7SK snRNA, within 15 min. These findings were substantiated using each of three antibodies to the cyclin T/Cdk9 complex. Levels of 7SK RNA in the corresponding total cell lysates were unchanged. […] Thus, hypertrophic signals in cultured cardiac myocytes and the intact heart induce the dissociation of 7SK RNA from endogenous cyclin T/Cdk9. […] Conversely, endogenous cyclin T/Cdk9 was recovered from cardiac lysates using streptavidin-agarose plus a biotinylated 2′-O-methyl (2′-OMe) oligonucleotide complementary to 7SK snRNA (FIG. 3G): this method confirmed independently the dissociation of 7SK snRNA from cardiac cyclin T/Cdk9 for Gq and calcineurin."}, "[10]": {"biological_target": "cyclin dependent kinase 9 (Cdk9) (endogenous, mouse myocardium) (mouse) (UniProt Q99J95)", "sequence (Q99J95 whole entry)": "as the sequence (Q641Z4 whole entry) above", "assay": "cell-based or functional assay"}, "[11]": {"settings": "50 μM, cardiac myocytes, [3H]uridine incorporation"}, "[12]": {"settings": "antisense knockdown of 7SK snRNA, 48 hr after transfection, cardiac myocytes"}}}
{"molecule": "OC[C@H]1O[C@@H](n2cnc3cc(Cl)c(Cl)cc32)[C@H](O)[C@@H]1O", "note": "[DRB, 5,6-dichloro-1-beta-D-ribofuranosylbenzimidazole]", "values": [{"measurement": "phosphorylation of mitogen-activated protein kinases downstream of ET-1", "setting": "[1]", "result": "without impairing"}, {"measurement": "Cdk9 activity (phosphorylation of recombinant CTD substrate)", "setting": "[2]; 50 μM DRB added in vitro to cardiac immune complexes", "result": "blocked Cdk9 activity almost completely"}, {"measurement": "inhibition of ET-1 induced RNA synthesis", "setting": "[3]; [11]", "result": "~80", "unit": "%"}, {"measurement": "inhibition of basal RNA synthesis", "setting": "[3]; [11]", "result": "~80", "unit": "%"}, {"measurement": "selectivity among CTD kinases", "setting": "[4]", "result": "selective activity against Cdk9"}, {"measurement": "ET-1-induced pol II phosphorylation", "setting": "[5]; 50 μM DRB, preincubated 2 hr, ET-1 15 min, cultured cardiac myocytes", "result": "inhibited"}, {"measurement": "ET-1-associated increase in myocyte size", "setting": "[6]", "result": "blocked"}, {"measurement": "apoptosis", "setting": "[7]; conditions sufficient to block ET-1 induction of pol II phosphorylation almost completely", "result": "no increase in apoptosis"}, {"measurement": "cell death", "setting": "[7]; higher concentrations that block RNA synthesis more completely", "result": "did induce cell death"}, {"measurement": "Cdk7 activity (phosphorylation of recombinant CTD substrate)", "setting": "[8]", "result": "little or no effect"}]}
{"molecule": "CNC[C@H](O)c1cccc(O)c1", "note": "[PE, phenylephrine]", "values": [{"measurement": "hyperphosphorylation of pol II", "setting": "[5]", "result": "induced"}]}
{"molecule": "antisense 7SK: antisense phosphorothioate oligonucleotide, SEQ. ID. NO. 1, 5′-CCTTGAGAGCTTGTTTGG AGG-3′, against 7SK snRNA (antisense CCTTGAGAGCTTGTTTGGAGG; all phosphorothioate, sugars by position and methylation of C not given here)", "values": [{"measurement": "endogenous Cdk9 activity", "setting": "[2]; [12]", "result": "markedly increased"}, {"measurement": "uridine incorporation", "setting": "[3]; [12]", "result": "as large an increase in uridine incorporation as did ET-1 itself"}]}
{"molecule": "endothelin-1 [ET-1]", "values": [{"measurement": "Cdk9 CTD kinase activity", "setting": "[2]; ventricular myocytes stimulated with ET-1 for 15 min", "result": "increased"}, {"measurement": "augmentation of [3H]uridine incorporation", "setting": "[3]; control eGFP-infected myocytes, 24 hr", "result": "one-third"}, {"measurement": "increase in proportion of pol IIo", "setting": "[5]; ET-1 time course, peak at 15 min, from 4% at baseline", "result": 9, "unit": "fold"}, {"measurement": "maximum proportion of pol IIo", "setting": "[5]; ET-1 time course, peak at 15 min, baseline 4%", "result": 36, "unit": "%"}, {"measurement": "preferred CTD heptad residue phosphorylated", "setting": "[5]; phospho-epitope specific antibodies, Ser2 vs Ser5", "result": "preferentially induce phosphorylation at Ser2"}, {"measurement": "hyperphosphorylation of pol II", "setting": "[5]", "result": "induced"}, {"measurement": "time to loss of Cdk9-associated 7SK snRNA", "setting": "[9]", "result": "≤ 15", "unit": "min"}]}
{"molecule": "mouse cyclin T1 (cardiac-specific αMHC-cyclin T1 transgene) (from UniProt Q9QWV9 1-724)", "values": [{"measurement": "Cdk9 activity (immune complex CTD kinase assay), high-expression transgenic line", "setting": "[10]", "result": 6, "unit": "fold"}, {"measurement": "Cdk9 activity (immune complex CTD kinase assay), low-expression transgenic line", "setting": "[10]", "result": 2, "unit": "fold"}, {"measurement": "baseline Cdk9 activity (immune complex kinase assay), cyclin T1 mice versus wild-type littermates", "setting": "[10]", "result": 4.4, "unit": "fold"}]}
{"molecule": "B1", "values": [{"measurement": "Cdk9 kinase activity after treatment of immune complexes", "setting": "[2]; RNase A 50 μg/ml 60 min, control cells, GST-CTD substrate", "result": "levels even higher than did ET-1"}]}
{"molecule": "B2", "values": [{"measurement": "hyperphosphorylation of pol II", "setting": "[5]", "result": "induced"}]}
